Reference: ChEMBL document CHEMBL4715829, “Heterodimeric Rifampicin-Tobramycin conjugates break intrinsic resistance of Pseudomonas aeruginosa to doxycycline and chloramphenicol in vitro and in a Galleria mellonella in vivo model” (Eur J Med Chem, 2019)

What was measured:
[1] = system: Pseudomonas aeruginosa; assay: Antibacterial activity against Pseudomonas aeruginosa PAO1 assessed as reduction in bacterial growth by measuring fosfomycin MIC at <=[…] uM in presence of fosfomycin incubated for 18 hrs by broth microdilution assay based checkerboard assay (reference value: […] microg/ml); assay type: functional; settings: dose microM <=10
[2] = system: Pseudomonas aeruginosa; assay: Antibacterial activity against Pseudomonas aeruginosa PAO1 assessed as reduction in bacterial growth by measuring nitrofurantoin MIC at <=10 uM in presence of nitrofurantoin incubated for 18 hrs by broth microdilution assay based checkerboard assay (reference value: 512 microg/ml); assay type: functional; settings: dose microM <=10
[3] = Hemolytic activity in porcine erythrocyte at 1024 ug/ml incubated for 1 hr; assay type: ADME, cell-based, Sus scrofa; settings: pig, porcine erythrocytes, at 1024 µg/mL, read-out: Activity
[4] = system: Pseudomonas aeruginosa; assay: Antibacterial activity against Pseudomonas aeruginosa PAO1 assessed as fractional inhibitory concentration index in presence of Minocycline incubated for 18 hrs by broth microdilution assay based checkerboard assay; assay type: functional
[5] = system: Pseudomonas aeruginosa; assay: Antibacterial activity against Pseudomonas aeruginosa PAO1 assessed as fractional inhibitory concentration index in presence of Tobramycin incubated for 18 hrs by broth microdilution assay based checkerboard assay; assay type: functional
[6] = system: Pseudomonas aeruginosa; assay: Antibacterial activity against Pseudomonas aeruginosa 91433 assessed as fractional inhibitory concentration index in presence of chloramphenicol incubated for 18 hrs by broth microdilution assay; assay type: functional
[7] = system: Pseudomonas aeruginosa; assay: Antibacterial activity against Pseudomonas aeruginosa PAO1 assessed as fractional inhibitory concentration index in presence of Nitrofurantoin incubated for 18 hrs by broth microdilution assay based checkerboard assay; assay type: functional
[8] = system: Pseudomonas aeruginosa; assay: Antibacterial activity against Pseudomonas aeruginosa 260-97103 assessed as reduction in bacterial growth incubated for 18 hrs by broth microdilution assay; assay type: functional
[9] = system: Pseudomonas aeruginosa; assay: Antibacterial activity against Pseudomonas aeruginosa PAO1 assessed as fractional inhibitory concentration index in presence of Clindamycin incubated for 18 hrs by broth microdilution assay based checkerboard assay; assay type: functional
[10] = system: Pseudomonas aeruginosa; assay: Antibacterial activity against Pseudomonas aeruginosa 262-101856 assessed as fractional inhibitory concentration index in presence of chloramphenicol incubated for 18 hrs by broth microdilution assay; assay type: functional
[11] = system: Pseudomonas aeruginosa; assay: Antibacterial activity against Pseudomonas aeruginosa PAO1 assessed as reduction in bacterial growth by measuring novobiocin MIC at <=10 uM in presence of novobiocin incubated for 18 hrs by broth microdilution assay based checkerboard assay (reference value: 512 microg/ml); assay type: functional; settings: dose microM <=10
[12] = system: Pseudomonas aeruginosa; assay: Antibacterial activity against Pseudomonas aeruginosa PAO1 assessed as fractional inhibitory concentration index in presence of Erythromycin incubated for 18 hrs by broth microdilution assay based checkerboard assay; assay type: functional
[13] = system: Pseudomonas aeruginosa; assay: Antibacterial activity against Pseudomonas aeruginosa PAO1 assessed as fractional inhibitory concentration index in presence of Pleuromutilin incubated for 18 hrs by broth microdilution assay based checkerboard assay; assay type: functional
[14] = system: Pseudomonas aeruginosa; assay: Antibacterial activity against Pseudomonas aeruginosa PAO1 assessed as fractional inhibitory concentration index in presence of Fosfomycin incubated for 18 hrs by broth microdilution assay based checkerboard assay; assay type: functional
[15] = system: Pseudomonas aeruginosa; assay: Antibacterial activity against Pseudomonas aeruginosa 91433 assessed as fractional inhibitory concentration index in presence of doxycycline incubated for 18 hrs by broth microdilution assay; assay type: functional
[16] = system: Pseudomonas aeruginosa; assay: Antibacterial activity against Pseudomonas aeruginosa 200 harboring efflux mutant assessed as reduction in bacterial growth incubated for 18 hrs by broth microdilution assay; assay type: functional
[17] = system: Pseudomonas aeruginosa; assay: Antibacterial activity against Pseudomonas aeruginosa PAO1 assessed as fractional inhibitory concentration index in presence of Trimethoprim incubated for 18 hrs by broth microdilution assay based checkerboard assay; assay type: functional
[18] = system: Pseudomonas aeruginosa; assay: Antibacterial activity against Pseudomonas aeruginosa PAO1 assessed as fractional inhibitory concentration index in presence of Tigecycline incubated for 18 hrs by broth microdilution assay based checkerboard assay; assay type: functional
[19] = system: Pseudomonas aeruginosa; assay: Antibacterial activity against Pseudomonas aeruginosa PAO1 assessed as fractional inhibitory concentration index in presence of Colistin incubated for 18 hrs by broth microdilution assay based checkerboard assay; assay type: functional
[20] = system: Pseudomonas aeruginosa; assay: Antibacterial activity against Pseudomonas aeruginosa PAO1 assessed as reduction in bacterial growth by measuring minocycline MIC at <=10 uM in presence of minocycline incubated for 18 hrs by broth microdilution assay based checkerboard assay (reference value: 8 microg/ml); assay type: functional; settings: dose microM <=10
[21] = system: Pseudomonas aeruginosa; assay: Antibacterial activity against Pseudomonas aeruginosa PAO1 assessed as reduction in bacterial growth by measuring doxycycline MIC at <=[…] uM in presence of doxycycline incubated for 18 hrs by broth microdilution assay based checkerboard assay (reference value: […] microg/ml); assay type: functional; settings: dose microM <=10
[22] = system: Staphylococcus epidermidis; assay: Antibacterial activity against methicillin-resistance Staphylococcus epidermidis CAN-ICU 61589 (CAZ>32) assessed as reduction in bacterial growth incubated for 18 hrs by broth microdilution assay; assay type: functional
[23] = system: Pseudomonas aeruginosa; assay: Antibacterial activity against Pseudomonas aeruginosa PAO1 assessed as reduction in bacterial growth by measuring erythromycin MIC at <=10 uM in presence of erythromycin incubated for 18 hrs by broth microdilution assay based checkerboard assay (reference value: 256 microg/ml); assay type: functional; settings: dose microM <=10
[24] = system: Pseudomonas aeruginosa; assay: Antibacterial activity against Pseudomonas aeruginosa 101243 assessed as fractional inhibitory concentration index in presence of doxycycline incubated for 18 hrs by broth microdilution assay; assay type: functional
[25] = system: Pseudomonas aeruginosa; assay: Antibacterial activity against Pseudomonas aeruginosa PAO1 assessed as reduction in bacterial growth by measuring pleuromutilin MIC at <=10 uM in presence of pleuromutilin incubated for 18 hrs by broth microdilution assay based checkerboard assay (reference value: 512 microg/ml); assay type: functional; settings: dose microM <=10
[26] = system: Pseudomonas aeruginosa; assay: Antibacterial activity against Pseudomonas aeruginosa PAO1 assessed as reduction in bacterial growth by measuring trimethoprim MIC at <=10 uM in presence of trimethoprim incubated for 18 hrs by broth microdilution assay based checkerboard assay (reference value: 64 microg/ml); assay type: functional; settings: dose microM <=10
[27] = system: Pseudomonas aeruginosa; assay: Antibacterial activity against Pseudomonas aeruginosa PAO1 assessed as fractional inhibitory concentration index in presence of Rifampicin incubated for 18 hrs by broth microdilution assay based checkerboard assay; assay type: functional
[28] = system: Pseudomonas aeruginosa; assay: Antibacterial activity against Pseudomonas aeruginosa 262-101856 assessed as reduction in bacterial growth incubated for 18 hrs by broth microdilution assay; assay type: functional
[29] = system: Pseudomonas aeruginosa; assay: Antibacterial activity against Pseudomonas aeruginosa PAO1 assessed as reduction in bacterial growth by measuring meropenem MIC at <=10 uM in presence of meropenem incubated for 18 hrs by broth microdilution assay based checkerboard assay (reference value: 1 microg/ml); assay type: functional; settings: dose microM <=10
[30] = system: Escherichia coli; assay: Antibacterial activity against gentamicin-resistant Escherichia coli CAN-ICU 61714 assessed as reduction in bacterial growth incubated for 18 hrs by broth microdilution assay; assay type: functional
[31] = Cytotoxicity against human HepG2 cells assessed as cell viability at <10 uM incubated for 48 hrs prestoblue assay; assay type: cell-based; settings: read-out: Activity
[32] = system: Pseudomonas aeruginosa; assay: Antibacterial activity against Pseudomonas aeruginosa PAO1 assessed as fractional inhibitory concentration index in presence of Aztreonam incubated for 18 hrs by broth microdilution assay based checkerboard assay; assay type: functional
[33] = system: Acinetobacter baumannii; assay: Antibacterial activity against Acinetobacter baumannii CAN-ICU 63169 assessed as reduction in bacterial growth incubated for 18 hrs by broth microdilution assay; assay type: functional
[34] = system: Pseudomonas aeruginosa; assay: Antibacterial activity against gentamicin-resistant Pseudomonas aeruginosa CAN-ICU 62308 assessed as reduction in bacterial growth incubated for 18 hrs by broth microdilution assay; assay type: functional
[35] = system: Pseudomonas aeruginosa; assay: Antibacterial activity against Pseudomonas aeruginosa PAO1 assessed as fractional inhibitory concentration index in presence of Vancomycin incubated for 18 hrs by broth microdilution assay based checkerboard assay; assay type: functional
[36] = system: Pseudomonas aeruginosa; assay: Antibacterial activity against Pseudomonas aeruginosa 264-101354 assessed as reduction in bacterial growth incubated for 18 hrs by broth microdilution assay; assay type: functional

CO[C@H]1/C=C/O[C@@]2(C)Oc3c(C)c(O)c4c(O)c(c(/C=N/N5CCN(Cc6cn(CCCCCCCCCCCCO[C@@H]7[C@@H](O[C@H]8O[C@H](CO)[C@@H](O)[C@H](N)[C@H]8O)[C@H](N)C[C@H](N)[C@H]7O[C@H]7O[C@H](CN)[C@@H](O)C[C@H]7N)nn6)CC5)c(O)c4c3C2=O)NC(=O)/C(C)=C\C=C\[C@H](C)[C@H](O)[C@@H](C)[C@@H](O)[C@@H](C)[C@H](OC(C)=O)[C@@H]1C.O=C(O)C(F)(F)F.O=C(O)C(F)(F)F.O=C(O)C(F)(F)F.O=C(O)C(F)(F)F.O=C(O)C(F)(F)F
MIC [1]: 4 µg/mL | MIC [2]: 256 µg/mL | hemolysis at 1 h, 1024 ug/ml [3]: < 2% | fractional inhibitory concentration index (FICI) [4]: 0.28 | fractional inhibitory concentration index (FICI) [5]: 1.03 | fractional inhibitory concentration index (FICI) [6]: 0.25 | fractional inhibitory concentration index (FICI) [7]: 0.53 | MIC [8]: > 128 µg/mL | fractional inhibitory concentration index (FICI) [9]: 0.26 | fractional inhibitory concentration index (FICI) [10]: <0.125 | MIC [11]: 128 µg/mL | fractional inhibitory concentration index (FICI) [12]: 0.06 | fractional inhibitory concentration index (FICI) [13]: 0.53 | fractional inhibitory concentration index (FICI) [14]: 0.28 | fractional inhibitory concentration index (FICI) [15]: 0.133 | MIC [16]: 128 µg/mL | fractional inhibitory concentration index (FICI) [17]: 0.28 | fractional inhibitory concentration index (FICI) [18]: 0.51 | fractional inhibitory concentration index (FICI) [19]: 0.26 | MIC [20]: 2 µg/mL | MIC [21]: 1 µg/mL | MIC [22]: 8 µg/mL | MIC [23]: 8 µg/mL | fractional inhibitory concentration index (FICI) [24]: 0.094 | MIC [25]: 256 µg/mL | MIC [26]: 16 µg/mL | fractional inhibitory concentration index (FICI) [27]: 0.15 | MIC [28]: > 256 µg/mL | MIC [29]: 1 µg/mL | MIC [30]: > 32 µg/mL | viability at 48 h [31]: > 90% | fractional inhibitory concentration index (FICI) [32]: 1.03 | MIC [33]: > 32 µg/mL | MIC [34]: > 32 µg/mL | fractional inhibitory concentration index (FICI) [35]: 0.53 | MIC [36]: 256 µg/mL
